We go through 71 molecules from PubChem BioAssay AID449764 (Southern Research Specialized Biocontainment Screening …, 2010).

In general, IC50 refers to the concentration at which inhibition is half-maximal. The term IC90 denotes the concentration needed for an effect of 90%. A low value points to an effect from little substance.

In this experiment the test system is Mycobacterium tuberculosis H37Rv growth inhibition, no glycerol. The experiment in a line: Mycobacterium tuberculosis H37Rv growth inhibition, no glycerol, confirmatory dose response (AID 449764).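 As to all read-outs here: growth read after 7 days of incubation.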 To be noted: for IC90: measured here: IC90 growth inhibition.

For `CNc1nc(-c2ccccn2)nnc1-c1ccccc1`, the IC50 is 22.7 µM and the IC90 is 25.4 µM.
Regarding `O=C(CSc1nnnn1C1CCCCC1)Nc1nc2c(s1)CCCC2`, the IC50 was 46.9 µM and the IC90 stood at 53.1 µM.
Turning to `CC(=O)N(Cc1ccc(F)cc1)C1=C(NCCc2ccccc2)C(=O)c2ccccc2C1=O`, the IC50 was 10.2 µM and the IC90 worked out at 16.6 µM.
`Cc1ccc(C)c(N2CCN(C(=O)c3ccc4nc(N5CCOCC5)sc4c3)CC2)c1`: the IC50 is 35.2 µM and the concentration for an effect of 90% (IC90) is 47.6 µM.
`Cc1ccc(C(=O)CC(SCC(=O)O)c2ccc([N+](=O)[O-])cc2)cc1` (configuration not stated): the IC50 is 10.8 µM and the concentration for an effect of 90% (IC90) turned out to be 12.1 µM.
Turning to `Cc1ccc(C(=O)N2N=C(c3ccc(NS(C)(=O)=O)cc3)CC2c2cccs2)cc1` (configuration not stated), the half-inhibitory concentration (IC50) is 23.6 µM and the IC90 stood at 37.5 µM.
Regarding `N#C/C(N=Nc1ccccc1O)=N\Nc1ccccc1O`, the IC50 was 2.25 µM and the IC90 turned out to be 3.64 µM.
For `CC(=O)N1CCN(c2ccc(Oc3ccc([N+](=O)[O-])c(C(F)(F)F)c3)cc2)CC1`, the IC50 was 93.5 µM and the IC90 is above 100 µM.
As to `CC(C)(C)c1ccc(OCCCC(=O)NC2=NCCS2)cc1`, the IC50 is 38.7 µM and the concentration for an effect of 90% (IC90) came to 48.9 µM.
Take `CN(C)C(=O)C1C2NC(=S)N(c3ccc(Cl)cc3)C1(C)Oc1ccc(Cl)cc12` (configuration not stated): the IC50 was 31.7 µM and the IC90 is 55.5 µM.
The matching figures for `CCOC(=O)CSc1nnc(-c2c[nH]c3ccccc23)o1`: 8.61 µM and 22.1 µM.
For `O=C(NCC(c1cccs1)N1CCOCC1)c1cc([N+](=O)[O-])cc([N+](=O)[O-])c1` (configuration not stated), the IC50 is 0.81 µM and the IC90 was determined as 1.5 µM.
With `Cc1c2c(nc3ccccc13)CCC(C)C2` (configuration not stated), the IC50 was 21.7 µM and the IC90 amounted to 37.1 µM.
For `Cc1cc(NC(=O)CCl)no1`, the IC50 was 2.63 µM and the IC90 was determined as 5.19 µM.
On to `CCc1c(C)sc2nc3c(C(=O)N4CCOCC4)cc(C(=O)c4cc(F)ccc4O)cn3c(=O)c12`, for which the IC50 was 82.2 µM and the 90% effect concentration (IC90) was above 100 µM.
With `Cn1c2ccccc2c2cc(C(=O)NNC(=O)CCl)sc21`, the 50% inhibitory concentration (IC50) is 4.41 µM and the 90% effect concentration (IC90) was determined as 8.11 µM.
Regarding `CC(C)CCC[C@@H](C)[C@H]1CC[C@H]2[C@@H]3C(=O)C=C4C[C@@H](O)CC[C@]4(C)[C@H]3CC[C@]12C`, the IC50 was 38.5 µM and the IC90 was found to be 62.9 µM.
For `CC(C)C1N=C(c2ccc3c(c2)OCO3)CC(c2ccccc2O)N1` (configuration not stated), the IC50 was 44.7 µM and the 90% effect concentration (IC90) came out at 50.9 µM.
With `Cc1ccc2cc(C)c(N3CCN(c4ccccn4)CC3)nc2c1`, the IC50 is 43.1 µM and the IC90 was 46.7 µM.
The matching figures for `CCC(C)NC(=O)c1cn(CC)c2cc(N3CCN(C(=O)c4ccco4)CC3)c(F)cc2c1=O` (configuration not stated): 23.5 µM and 29.7 µM.
On to `O=C(c1ccc(-c2cccc(C(F)(F)F)c2)o1)N1CCN(c2ccccc2O)CC1`, for which the half-maximal inhibitory concentration (IC50) was 24 µM and the IC90 was found to be 27.5 µM.
In the case of `CNc1ccccc1C(=O)OC(C)C(=O)Nc1ccc(Cl)cn1` (configuration not stated), the IC50 was 35.3 µM and the IC90 was 65.3 µM.
With `Clc1ccc(-c2cc3ccccc3nc2N2CCCC2)cc1`, the IC50 was 71.6 µM and the IC90 is above 100 µM.
Turning to `O=C(CCl)Nc1cn(-c2ccccc2)nc1-c1ccccc1`, the IC50 was 0.5 µM and the concentration for an effect of 90% (IC90) was 1.23 µM.
Consider `CCOc1cc(/C=C\[N+](=O)[O-])ccc1OCC(=O)Nc1ccccc1C`, for which the IC50 is 29.8 µM and the IC90 was determined as 59 µM.
As for `c1ccc(C[C@H]2CN=C(Nc3ccccc3)N2CCCC2CCCC2)cc1`, the IC50 was 33.1 µM and the IC90 was 44.5 µM.
As for `Cc1ccc2nc(N/N=C/c3ccccc3C#N)nc(-c3ccccc3)c2c1`, the concentration for half-maximal inhibition (IC50) was 91.1 µM and the IC90 is above 100 µM.
Consider `C=CCOc1ccc(C2=NOC(C(=O)Nc3ccc4c(c3)OCCO4)C2)cc1` (configuration not stated), for which the IC50 is 41.4 µM and the IC90 turned out to be 60 µM.
`Cn1cc(C(=O)c2ccc(Cl)cc2)cc1-c1nc2ccccc2n1C`: the IC50 was 35.9 µM and the IC90 was found to be 49.5 µM.
For the molecule `Cc1cc(-c2cc(-c3ccccc3)on2)nc(NC2CCCC2)n1`, the IC50 is 34.5 µM and the IC90 was 56.6 µM.
As for `COc1ccc(Cl)cc1C(=O)O/N=C(\N)c1ccccn1`, the IC50 was 76.4 µM and the IC90 is above 100 µM.
For `Cc1ccc2[nH]c(C)c(CCNC(=O)c3cc4cc([N+](=O)[O-])ccc4oc3=O)c2c1`, the IC50 is 11.2 µM and the IC90 came to 17.8 µM.
With `COC(=O)CSc1ncnc2c1sc1nc3c(cc12)COC(C)(C)C3`, the IC50 is 5.81 µM and the IC90 is 8.03 µM.
`COc1ccc(-n2cc(CNCCc3cscn3)c(-c3ccccc3Cl)n2)cc1`: the IC50 was 27.8 µM and the IC90 worked out at 35.9 µM.
For the molecule `CC1Cc2cc(-c3csc(NC(=O)Cc4cccs4)n3)ccc2N1S(C)(=O)=O` (configuration not stated), the IC50 was 36.2 µM and the IC90 is above 100 µM.
The matching figures for `CC1(C)c2[nH]c3ccccc3c2C[C@@H]2C(=O)N(Cc3ccccc3F)C(=O)N21`: 49.3 µM and above 50 µM.
`C/C(=N\NC(=O)c1ccc(O)cc1)c1ccc2c(c1)Nc1ccccc1S2`: the IC50 is 50.2 µM and the IC90 was 95.6 µM.
As to `CCCCCCCCCCC[N+](C)(C)CC/C=C1/c2ccccc2Sc2ccc(Cl)cc21`, the IC50 is 8.03 µM and the IC90 was 9.28 µM.
Take `O=C(CN1CCCCC1)Nc1nnc(-c2ccc([N+](=O)[O-])cc2)s1`: the IC50 was 44.9 µM and the IC90 is 69.6 µM.
`CC(CC(=O)Nc1ccc(Cl)c([N+](=O)[O-])c1)c1ccccc1` (configuration not stated): the IC50 was 18 µM and the IC90 came to 29.4 µM.
For `Cc1ccc(Nc2nc(CSc3nnc(-c4cccs4)o3)cs2)cc1` the same measures were 43.3 µM and above 100 µM.
The matching figures for `CCOC(=O)C1CCN(c2nc3cc(OC)ccc3cc2C#N)CC1`: 83.5 µM and above 100 µM.
Turning to `Cc1ccc(-n2c(Cl)c(Cl)nc(Cl)c2=O)cc1`, the 50% inhibitory concentration (IC50) is 16.3 µM and the 90% effect concentration (IC90) worked out at 24.8 µM.
On to `CC1(C)Cc2c(C#N)c(N3CCN(C(=O)c4ccccc4)CC3)nc(Cc3ccccc3)c2CO1`, for which the IC50 was 31.4 µM and the IC90 is 46.9 µM.
As to `COc1ccc(C2c3[nH]c4ccccc4c3CCN2Cc2cccn2-c2ncccn2)cc1C` (configuration not stated), the half-maximal inhibitory concentration (IC50) is 36.4 µM and the IC90 was 47 µM.
The matching figures for `O=C1C=C(c2ccc3[nH]ccc3c2)C[C@@H](c2ccc(Cl)cc2)C1`: 84.5 µM and above 100 µM.
Regarding `Nc1ccccc1C#CC(=O)c1ccccc1`, the IC50 is 4.11 µM and the IC90 is 21.7 µM.
`C/C(=C\C(=S)Nc1ccccc1)Nc1ccc2ccccc2c1`: the IC50 is 37.8 µM and the IC90 was determined as 50.8 µM.
As for `COc1cccc(-c2cnc(NCc3cc(Cl)ccc3O)n2C)c1`, the IC50 was 21.1 µM and the concentration for an effect of 90% (IC90) was found to be 23.4 µM.
With `COc1ccc(-c2cc(-c3ccccc3)c(C#N)c(S(C)=O)n2)cc1` (configuration not stated), the IC50 was 91.8 µM and the IC90 was above 100 µM.
For `COCCCNC(=O)/C(C#N)=C/c1c(N2CCN(c3cccc(Cl)c3)CC2)nc2c(C)cccn2c1=O` the same measures were 38.5 µM and above 100 µM.
For `O=C(/C=C\c1cccs1)N1CCN(Cc2ccc3c(c2)OCO3)CC1` the same measures were 0.6 µM and 1.45 µM.
On to `Cc1ccc2c(c1)c(/C=C/c1cc[n+](C)cc1)c(C)n2C`, for which the half-maximal inhibitory concentration (IC50) was 5.82 µM and the IC90 came to 6.61 µM.
For the molecule `CN(C(=S)NC(=O)c1ccc(Cl)cc1)C1CCCCC1`, the half-inhibitory concentration (IC50) is 9.46 µM and the IC90 is 14.7 µM.
In the case of `O=C(c1cnn2c(C(F)F)cc(-c3ccccc3)nc12)N1CCc2ccccc2C1`, the IC50 is 35.4 µM and the 90% effect concentration (IC90) worked out at 48.6 µM.
With `O=C(Cn1ncc(Cl)c(Cl)c1=O)c1ccc2c(c1)OCCO2`, the half-inhibitory concentration (IC50) is 10.4 µM and the IC90 was 15.7 µM.
As to `CC(C)NC(=S)N/N=C/c1cc(Br)ccc1O`, the IC50 is 29.5 µM and the IC90 was above 100 µM.
`Oc1ccc2ccccc2c1N=Nc1nccs1`: the IC50 is 1.96 µM and the IC90 amounted to 3.06 µM.
Consider `CC(C)(C)C(=O)/C(=C\c1cccc([N+](=O)[O-])c1)n1cncn1`, for which the IC50 is 3 µM and the concentration for an effect of 90% (IC90) turned out to be 3.41 µM.
Turning to `CCOC(=O)c1nn(-c2ccc(C)cc2)c2nc(Nc3ccccc3)cc(=O)n12`, the IC50 was 12 µM and the 90% effect concentration (IC90) came to 13.6 µM.
With `O=C(C1CC1)N1CCCC(c2ccc(Cl)cc2)=N1`, the IC50 is 42.3 µM and the IC90 is 63.5 µM.
In the case of `CC(=O)O[C@H]1C[C@@]2(C)[C@@H](C[C@@H](O)[C@H]3[C@@]4(C)CC[C@@H](O)[C@@H](C)[C@@H]4CC[C@@]32C)/C1=C(\CCC=C(C)C)C(=O)O`, the IC50 was 2.94 µM and the IC90 was determined as 6.55 µM.
For `CCCCn1nc(C(=O)Nc2ccccc2N2CCCC2)c2ccccc2c1=O` the same measures were 81 µM and above 100 µM.
For `O=C(CSC1=NC(=O)C(c2ccccc2)C(=O)N1)Nc1ccccc1Cl` (configuration not stated) the same measures were 7.27 µM and 24.2 µM.
As to `CN(CCO)c1cc(Sc2nc3ccccc3s2)c2nonc2c1[N+](=O)[O-]`, the IC50 is 74.4 µM and the 90% effect concentration (IC90) was 95 µM.
The matching figures for `Cc1ccc(NC(=S)N(CCCN2CCCC2)Cc2cccn2Cc2ccc(Cl)cc2)cc1C`: 75.5 µM and above 100 µM.
Consider `COCCNC(=S)N/N=C(\C)c1ccc(OC)cc1`, for which the IC50 is 43.6 µM and the IC90 was found to be 49 µM.
Consider `CN(C)CCCN(C(=O)c1cc(-c2cccs2)nc2ccccc12)c1nc2ccc(F)cc2s1`, for which the IC50 is 34.9 µM and the 90% effect concentration (IC90) came out at 54.3 µM.
The matching figures for `Nc1ccc(C(=O)OCCCc2nc3cc4ccccc4cc3[nH]2)cc1`: 37.2 µM and 59.3 µM.
Turning to `CNC(CC(=O)c1ccc([N+](=O)[O-])cc1)C(Cl)(Cl)Cl` (configuration not stated), the half-inhibitory concentration (IC50) was 5.37 µM and the IC90 was 7.81 µM.
Regarding `Cc1nn(-c2ccccc2)c(N)c1C(c1ccc(C(C)C)cc1)c1c(C)nn(-c2ccccc2)c1N`, the IC50 is 22.9 µM and the IC90 came out at 25.8 µM.
